Assay results from PubChem BioAssay (NCI).
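These data come from cells grown in 96-well plates and exposed to compound for 48 hours at five concentrations. At the GI50, growth is halved. The concentration for full growth arrest is given as TGI.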 Where a SMILES comes first, the peptide text is derived from it. The star is where a group is joined. Boc = CC(C)(C)OC(=O)*

Assays:
Assay in all cases: NCI tumour cell line growth inhibition, 48 h
OVCAR-5 ovarian = system: OVCAR-5 ovarian
MDA-MB-435 = system: MDA-MB-435
OVCAR-3 ovarian = system: OVCAR-3 ovarian
CAKI-1 renal = system: CAKI-1 renal
MALME-3M melanoma = system: MALME-3M melanoma
U251 CNS = system: U251 CNS
SN12C renal = system: SN12C renal
M14 melanoma = system: M14 melanoma
SNB-75 CNS = system: SNB-75 CNS
SR leukemia = system: SR leukemia

Row | SMILES | TGI (OVCAR-5 ovarian) [µM] | TGI (MDA-MB-435) [µM] | TGI (OVCAR-3 ovarian) [µM] | TGI (CAKI-1 renal) [µM] | TGI (MALME-3M melanoma) [µM] | TGI (U251 CNS) [µM] | TGI (SN12C renal) [µM] | TGI (M14 melanoma) [µM] | TGI (SNB-75 CNS) [µM] | TGI (SR leukemia) [µM] | GI50 (SN12C renal) [µM]
1 | c1ccc2c(Nc3ncco3)cccc2c1 | > 10 | > 10 | > 10 | > 10 | > 10 | > 10 | > 10 | > 10 | > 10 | > 10 | 
2 | CC(=O)OCC1OC(SC2=NC(=O)CS2)C(OC(C)=O)C(OC(C)=O)C1OC(C)=O (stereo unspecified) | > 100 | > 100 | > 100 | > 100 | > 100 |  | > 100 | > 100 | > 100 | > 100 | 
3 | COC(=O)c1c2c(cc3c1CC1(Cc4cc5c(c(C)c4C1)CCC5)C3)CCC2 (stereo unspecified) | > 100 | > 100 | > 100 | > 100 | > 100 | > 100 |  | > 100 |  | > 100 | 
4 | CCOC(=O)CCc1cn2cc(Br)nc(OC)c2n1 |  | 26 | > 100 | > 100 | > 100 | > 100 | > 100 | > 100 | > 100 | > 100 | 
5 | O=c1c2ccccc2nc(N/N=C/c2ccc([N+](=O)[O-])cc2)n1-c1ccccc1 | > 100 | > 100 | > 100 | 49.4 | > 100 | 48.4 | > 100 | > 100 | 56.7 | > 100 | 
6 | Cc1cc2nc3ccccc3n2c2ccccc12 | > 10 | > 10 | > 10 | > 10 | > 10 | > 10 | > 10 | > 10 | > 10 | > 10 | 
7 | Oc1cccc2c(Br)ccnc12 | 20 | 34.3 | 7.81 | > 100 | 21.2 | 20.4 | 21.7 | 16.3 | 66.2 | 4.31 | 
8 | CC(OP(=O)(O)O)C(N)C(=O)O (stereo unspecified) | > 100 | > 100 | > 100 | > 100 | > 100 | > 100 | > 100 | > 100 | > 100 | > 100 | 
9 | O=C(O)CSC1=NNC2(C(=O)N1)c1ccccc1-c1ccccc12 |  | > 10 |  | > 10 | > 10 |  | > 10 | > 10 | > 10 | > 10 | 
10 | O=C1CCCCC/C1=C\c1cccc(F)c1 | > 100 | > 100 | > 100 | > 100 | > 100 | > 100 | > 100 | > 100 | > 100 | 61.2 | 
11 | Cc1ccc(N=C/C=C(\Nc2ccc(C)cc2)c2ccc3ccccc3c2)cc1 | 6.24 | 0.493 | 11.2 | 12.7 | 14 | 7.23 |  | 8.69 | 6.16 | 1.44 | 
12 | C=C(CN(CC)CC)C1(c2ccccc2)CC2(CCCC2)C(=O)O1 (stereo unspecified) | > 100 | > 100 | > 100 | > 100 | > 100 | > 100 | > 100 | > 100 | 92.6 | > 100 | 
13 | S=C1C(=Nc2ccccc2)N(c2ccccc2)/C(=N\c2cccc[n+]2Cc2ccccc2)N1c1ccccc1 | 32.7 | 22.3 | 54.3 | 55.7 | 28.2 |  | 35.4 | 27.5 | 25.5 | 79.7 | 
14 | Nc1ccc2c(=O)cc(-c3ccc(Br)s3)[nH]c2n1 | > 100 | 1.39 | > 100 | > 100 | > 100 | > 74.4 | > 100 | 45.3 | > 28.6 | > 51.1 | 
15 | CCOC(=O)C1CCC(=O)N1C(=O)c1cccc(Cl)c1 (stereo unspecified) | > 100 | > 100 | > 100 | > 100 | > 100 | > 100 | > 100 | > 100 | > 100 | > 100 | 
16 | O=c1cc(N2CCOCC2)n2c(ccc3ccccc32)n1 | > 100 | > 100 | > 100 | > 100 | > 100 | > 100 | > 100 | > 100 | > 100 | > 100 | 
17 | N/N=C(/N)SCCCCCCCCCCS/C(N)=N/N | > 100 | > 100 | 91.1 | > 100 | 49.4 | 51.4 | > 100 | > 100 |  | 27.4 | 
18 | Cc1ccc(S(=O)(=O)OCCC2CN(C(=O)OCc3ccccc3)C(C)(C)O2)cc1 (stereo unspecified) | > 100 | 22.5 | > 100 | > 100 | 43.3 | > 100 | > 100 | 38.1 |  | > 100 | 
19 | CC(C)(C)c1cc(OCc2nnc3sc(Cc4ccccc4)nn23)c(Cl)cc1OCc1nnc2sc(Cc3ccccc3)nn12 | > 100 | 82.9 | > 100 | > 100 | > 100 | 34.6 | > 100 | 88 | 84.8 | 70.6 | 
20 | Cc1cc(C)nc(NS(=O)(=O)c2ccc(NNc3c4ccccc4nc4c(C(=O)Nc5ccc(S(=O)(=O)Nc6cc(C)on6)cc5)cccc34)cc2)n1 | > 100 | > 100 | 47.2 | > 100 | > 100 | 79.2 | > 100 | > 100 | 86 | 72.8 | 
21 | Cc1nc2ccc(Br)cc2c(=O)n1-c1ccc(N)cc1 | > 100 | > 100 | > 100 | > 100 | > 100 |  | > 100 | > 100 | > 100 | > 100 | 
22 | NC1CCCCC1NCCNC1CCCCC1N (stereo unspecified) | 56.6 | > 100 | > 100 | > 100 | > 100 | > 100 | > 100 | > 100 |  | > 100 | 

Row | SMILES | TGI (OVCAR-5 ovarian) [µM] | TGI (MDA-MB-435) [µM] | TGI (OVCAR-3 ovarian) [µM] | TGI (CAKI-1 renal) [µM] | TGI (MALME-3M melanoma) [µM] | TGI (U251 CNS) [µM] | TGI (SN12C renal) [µM] | TGI (M14 melanoma) [µM] | TGI (SNB-75 CNS) [µM] | TGI (SR leukemia) [µM] | GI50 (SN12C renal) [µM]
23 | O=C1C=CC(=O)c2c(O)c(N3CCOCC3)c(Cl)c(O)c21 | 1.76 | 0.406 | 1.31 | 1.27 | 0.442 | 2.62 | 0.425 | 0.358 | 2.04 | > 7.34 | 
24 | CSc1nnc(SCc2nn3c(=O)cc(C)nc3s2)s1 | > 100 | > 100 | > 100 | > 100 | > 100 | > 100 | > 100 | > 100 | > 100 | > 100 | 
25 | O=c1[nH]n(CCc2ccccc2CCl)c2ccc([N+](=O)[O-])cc12 | > 100 | > 100 | > 100 | > 100 | > 100 | > 100 | > 100 | > 100 |  | > 100 | 
26 | CC(=O)/C=C/c1ccccc1 | > 100 | 68.3 |  | > 100 | > 100 | > 100 | > 100 | 85 | > 100 | 53 | 
27 | O=C1Nc2cccc(Cl)c2/C1=C\c1c(-c2ccccc2)nc2n1CCS2 | 48.2 | 36.5 | 43.5 | 73.8 | 46.3 | 47.4 | 31.7 | 45.2 | 66.8 | 53.2 | 
28 | O=C1C=C(N2CCN(c3ncccn3)CC2)C(=O)c2c(O)ccc(O)c21 | > 100 | 24.3 | > 100 | > 100 | 46.6 | > 100 | > 100 | > 100 |  | > 100 | 
29 | COc1ccc(-n2c(N)c(C#N)c(C#N)c2-c2ccco2)cc1 | > 100 | > 100 | > 100 | > 100 | > 100 | > 100 | > 100 | > 100 | > 100 | > 100 | 
30 | COc1ccc(/C=c2\[nH]c3nc(=O)c(N4CCCCC4)c(N)n3c2=O)cc1 | > 100 | > 100 |  | > 100 | > 100 | > 100 | > 100 | > 100 | 78.7 | > 100 | 
31 | Cc1cc2c(c(C(=O)NCC(=O)O)c1)Oc1c(cc(C)cc1C(=O)NCC(=O)O)S2 | > 100 | > 100 | > 100 | > 100 | > 100 | > 100 | > 100 | > 100 | > 100 | > 100 | 
32 | COC(=O)[C@@H](NS(=O)(=O)CC12CCC(CC1)C2(C)C)C(C)(C)C | > 100 | > 100 | > 100 | > 100 | > 100 | > 100 | > 100 | > 100 | > 100 | > 100 | 
33 | COC(=O)C(Cc1c[nH]c2ccccc12)NC(=O)C(Cc1c[nH]c2ccccc12)NC(=O)C(Cc1c[nH]c2ccccc12)NC(=O)C(Cc1c[nH]c2ccccc12)NC(=O)C(Cc1c[nH]c2ccccc12)NC(=O)C(Cc1c[nH]c2ccccc12)NC(=O)C(Cc1c[nH]c2ccccc12)NC(=O)OC(C)(C)C (stereo unspecified) (Boc-WWWWWWW-OMe; configuration not given here) | > 100 | > 100 | > 100 | > 100 | > 100 | > 100 | > 100 | 58.9 | > 100 | > 100 | 
34 | COC(=O)/C=C\n1nc(Br)c(=O)[nH]c1=O | > 100 | > 100 | > 100 | > 100 | > 100 | > 100 | > 100 | > 100 | > 100 | > 100 | 
35 | COC(=O)C1C(=O)CC(C)(O)C(C(=O)OC)C1c1ccc(N(C)C)cc1 (stereo unspecified) | > 100 | > 100 | > 100 | > 100 | > 100 | > 100 | > 100 |  | > 100 | > 100 | 
36 | CC(c1ccccc1)n1cncc1C(=O)NN1CCN(C)CC1 (stereo unspecified) | > 10 | > 10 | > 10 | > 10 | > 10 | > 10 | > 10 | > 10 |  | > 10 | 
37 | COc1cccc(NC(=O)CC(=O)n2nc(-c3ccccc3)c(N=Nc3ccc(Cl)cc3)c2-c2ccccc2)c1 | > 100 | > 100 | 99.1 | > 100 | 78.8 | 77.9 | > 100 | 42.3 | > 86.9 | > 73.2 | 
38 | O=C1C=CC(=O)c2c1ccc1c3ccccc3n(Cc3ccccc3)c21 | 72.4 | > 56.8 | 33 | 32 | 30.8 | > 100 | 42.9 | 42 | > 100 | > 28.7 | 
39 | Clc1ccc(-c2nn3c(COc4cccc(OCc5nnc6sc(-c7ccc(Cl)cc7)nn56)c4)nnc3s2)cc1 | 74.4 | 41.7 | 44 | 48.8 | 50.4 | 61.3 | 29.1 | 75.9 | 73.5 | 88.9 | 
40 | [N-]=[N+]=Nc1nc2ccccc2c(N=[N+]=[N-])c1Cl | > 100 | > 100 | > 100 | > 100 | > 100 | > 100 | > 100 | > 100 | > 100 | > 100 | 
41 | Cn1c2ccc(Cl)cc2c2ccc3c(c21)C(=O)C=CC3=O | > 10 | > 10 | > 10 | > 10 | > 10 | > 10 | > 10 | > 10 | > 10 | > 10 | 
42 | CC/C=C/c1cc2c(cc1O)CCC1C2CC[C@@]2(C)C1CC[C@@H]2O (stereo partly specified) | 26.8 | 1.12 | 1.6 | 13.7 | 15.8 | 15.7 | 18.7 | 12.2 | 8.14 | 0.817 | 5.13
43 | COc1cc(S(=O)(=O)Nc2ccc(-c3csc(N4C(=O)C(Cl)C4c4ccccc4O)n3)cc2)ccc1Cl (stereo unspecified) | > 100 | > 100 | > 100 | > 100 | > 100 |  | > 100 | > 100 | > 100 | 52 | 
